Experiments:
[1] = system: SV40-Luc; assay: SV40-Luc control luciferase reporter assay, SV 5A8 cell line (SV40-Luc and SV40-R-Luc), control for non-specific inhibitors; type: cell-based, human; details: SV 5A8 cells derived from SW480, 24 hours of incubation with compound, ratio Firefly/Renilla luciferase
How it was run: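 SW480-derived lines with integrated reporters: SV 5A8 (SV40 firefly plus SV40 Renilla), Tcf 33.13 and Tcf 22C11 (Tcf-4 firefly plus SV40 Renilla). Cells seeded 1×10^4/well, compounds added 20-24 h later at titrated concentrations (final DMSO 0.316%) for 24 h. Firefly/Renilla ratio, as % of control, gave IC50 (nM).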

[2] = system: β-catenin/Tcf-4; assay: cells; type: cell-based; details: 24 hours of incubation with compound, ratio Firefly/Renilla luciferase
How it was run: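 SW480-derived lines with integrated reporters (Tcf-4-driven firefly luciferase; SV40 firefly as specificity control; SV40 Renilla for cell number/toxicity), treated 24 hours with titrated compounds, final 0.316% DMSO. Dual-luciferase read-out; firefly/Renilla ratio as % of control, duplicate plates, IC50 (nM) from curve fit.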

[3] = Homo sapiens, SW480, 24 h, Tcf 33.13 cells derived from SW480
[4] = Homo sapiens, Tcf22C11, 24 h, Tcf 22C11 cells derived from SW480
[5] = Tcf 22C11 cells derived from SW480
[6] = Tcf 33.13 cells derived from SW480

IC50 ([1]; Homo sapiens, SV5A8, 24 h) | IC50 [2, 3] | IC50 [2, 4] | IC50 [1] | IC50 [2, 5] | IC50 [2, 6] | Compound
> 8420 nM | 2120 nM | 2280 nM | – | – | – | Cc1ccc2c(NCc3ccc(NC(=O)C4CCN(Cc5ccccc5)CC4)cc3)nc(N3CCNC(CCO)C3)nc2c1 (stereo not drawn) [Example 138, 1-benzyl-N-{4-[({2-[3-(2-hydroxyethyl)piperazin-1-yl]-7-methylquinazolin-4-yl}amino)methyl]phenyl}piperidine-4-carboxamide]
> 4660 nM | 962 nM | 1100 nM | – | – | – | CNc1nc(NCc2ccc(NC(=O)c3ccc(C#N)cc3)cc2)c2cccc(C)c2n1 [Example 266, 4-cyano-N-[4-({[8-methyl-2-(methylamino)quinazolin-4-yl]amino}methyl)phenyl]benzamide]
> 1270 nM | 193 nM | 204 nM | – | – | – | Cc1ccc2c(NCc3ccc(NC(=O)c4ccc(Br)cc4)cc3)nc(N(C)C)nc2c1 [Example 239, 4-bromo-N-[4-({[2-(dimethylamino)-7-methylquinazolin-4-yl]amino}methyl)phenyl]benzamide]
> 8080 nM | 4310 nM | 5190 nM | – | – | – | O=C(Nc1ccc(CNc2nc(N3CCN(c4ncccn4)CC3)nc3ccc(C(F)(F)F)cc23)cc1)c1ccc(Cl)cc1 [Example 164, 4-chloro-N-[4-({[2-(4-pyrimidin-2-ylpiperazin-1-yl)-6-(trifluoromethyl)quinazolin-4-yl]amino}methyl)phenyl]benzamide]
– | – | – | > 23300 nM | > 23300 nM | > 23300 nM | N-[4-({[6-nitro-2-(methylamino)quinazolin-4-yl]amino}methyl)phenyl]nicotinamide [Example 188]
> 4110 nM | 305 nM | 462 nM | – | – | – | C/C=C\c1ccc2c(NCc3ccc(NC(=O)C4CCN(Cc5ccccc5)CC4)cc3)nc(N(C)C)nc2c1 [Example 153, 1-benzyl-N-{4-[({2-(dimethylamino)-7-[(1Z)-prop-1-en-1-yl]quinazolin-4-yl}amino)methyl]phenyl}piperidine-4-carboxamide]
> 8440 nM | 3490 nM | > 2110 nM | – | – | – | O=C(Nc1ccc(CNc2nc(N3CCC3)nc3ccc(C(F)(F)F)cc23)cc1)C1CCN(Cc2ccc(F)cc2)CC1 [Example 155, N-[4-({[2-azetidin-1-yl-6-(trifluoromethyl)quinazolin-4-yl]amino}methyl)phenyl]-1-(4-fluorobenzyl)piperidine-4-carboxamide]
> 8620 nM | 1320 nM | 1420 nM | – | – | – | Cc1ccc2c(NCc3ccc(NC(=O)C4CCN(Cc5ccccc5)CC4)cc3)nc(N(C)CCCN(C)C)nc2c1 [Example 140, 1-benzyl-N-{4-[({2-[[3-(dimethylamino)propyl](methyl)amino]-7-methylquinazolin-4-yl}amino)methyl]phenyl}-piperidine-4-carboxamide]
> 22500 nM | 1310 nM | 1650 nM | – | – | – | Cc1cc(C)c2nc(N(C)C)nc(NCc3ccc(NC(=O)c4ccc(F)cc4)cc3)c2c1 [Example 52, N-[4-({[2-(dimethylamino)-6,8-dimethylquinazolin-4-yl]amino}methyl)phenyl]-4-fluorobenzamide]
> 5590 nM | 1720 nM | 1880 nM | – | – | – | CNc1nc(NCc2ccc(NC(=O)c3ccc(Cl)nc3)cc2)c2cc(C)cc(C)c2n1 [Example 23, 6-chloro-N-[4-({[6,8-dimethyl-2-(methylamino)quinazolin-4-yl]amino}methyl)phenyl]nicotinamide]
> 2530 nM | 726 nM | 606 nM | – | – | – | CNc1nc(NCc2ccc(NC(=O)C3CCN(Cc4ccccc4)CC3)cc2)c2cc(C)ccc2n1 [Example 149, 1-benzyl-N-[4-({[6-methyl-2-(methylamino)quinazolin-4-yl]amino}methyl)phenyl]piperidine-4-carboxamide]
> 5200 nM | 1250 nM | 1570 nM | – | – | – | CNc1nc(NCc2ccc(NC(=O)C3CCN(Cc4ccccc4)CC3)cc2)c2ccccc2n1 [Example 147, 1-benzyl-N-[4-({[2-(methylamino)quinazolin-4-yl]amino}methyl)phenyl]piperidine-4-carboxamide]
> 18600 nM | 1420 nM | 1460 nM | – | – | – | Cc1ccc2c(NCc3ccc(NC(=O)C4CCN(Cc5ccccc5)CC4)cc3)nc(N(C)CCO)nc2c1 [Example 139, 1-benzyl-N-{4-[({2-[(2-hydroxyethyl)(methyl)amino]-7-methylquinazolin-4-yl}amino)methyl]phenyl}piperidine-4-carboxamide]
> 17300 nM | 955 nM | 1390 nM | – | – | – | Cc1ccc2nc(N3C[C@@H](C)N[C@@H](C)C3)nc(NCc3ccc(NC(=O)C4CCN(Cc5ccccc5)CC4)cc3)c2c1 [Example 78, 1-benzyl-N-{4-[({2-[(3R,5S)-3,5-dimethylpiperazin-1-yl]-6-methylquinazolin-4-yl}amino)methyl]phenyl}piperidine-4-carboxamide]
4190 nM | 2080 nM | 2500 nM | – | – | – | Cc1ccc2nc(N(C)Cc3ccccn3)nc(NCc3ccc(NC(=O)c4ccc(F)cc4)cc3)c2c1 [Example 58, 4-fluoro-N-{4-[({6-methyl-2-[methyl(pyridin-2-ylmethyl)amino]quinazolin-4-yl}amino)methyl]phenyl}benzamide]

Second part, the compound before the results:

Compound | IC50 ([1]; Homo sapiens, SV5A8, 24 h) | IC50 [2, 3] | IC50 [2, 4] | IC50 [1] | IC50 [2, 5] | IC50 [2, 6]
Cc1ccc2c(NCc3ccc(NC(=O)c4ccc(F)cc4)cc3)nc(N(C)CCO)nc2c1 [Example 214, 4-fluoro-N-{4-[({2-[(2-hydroxyethyl)(methyl)amino]-7-methylquinazolin-4-yl}amino)methyl]phenyl}benzamide] | > 1090 nM | 379 nM | 452 nM | – | – | –
CNc1nc(NCc2ccc(NC(=O)c3ccc(Cl)cc3)cc2)c2cc(C)cc(C)c2n1 [Example 29, 4-chloro-N-[4-({[6,8-dimethyl-2-(methylamino)quinazolin-4-yl]amino}methyl)phenyl]benzamide] | > 2800 nM | 756 nM | 988 nM | – | – | –
O=C(Nc1ccc(CNc2nc(N3CCCCC3)nc3ccccc23)cc1)c1ccc(F)cc1 [Example 123, 4-fluoro-N-(4-{[(2-piperidin-1-ylquinazolin-4-yl)amino]methyl}phenyl)benzamide] | > 11000 nM | 2930 nM | 5850 nM | – | – | –
CN(C)c1nc(NCc2ccc(NC(=O)c3ccc(F)cc3)cc2)c2cc(F)ccc2n1 [Example 60, N-[4-({[2-(dimethylamino)-6-fluoroquinazolin-4-yl]amino}methyl)phenyl]-4-fluorobenzamide] | > 11500 nM | 1950 nM | 5390 nM | – | – | –
Cc1ccc2c(NCc3ccc(NC(=O)C4CCN(Cc5ccccc5)CC4)cc3)nc(N(C)CCN(C)C)nc2c1 [Example 144, 1-benzyl-N-{4-[({2-[[2-(dimethylamino)ethyl](methyl)amino]-7-methylquinazolin-4-yl}amino)methyl]phenyl}piperidine-4-carboxamide] | > 8840 nM | 1440 nM | 2270 nM | – | – | –
4-chloro-2-fluoro-N-[4-({[6-methyl-2-(methylamino)quinazolin-4-yl]amino}methyl)phenyl]benzamide [Example 26] | – | – | – | > 2780 nM | 739 nM | 614 nM
Cc1ccc2nc(N3CCN(C)CC3)nc(NCc3ccc(NC(=O)c4ccc(F)cc4)cc3)c2c1 [Example 48, 4-fluoro-N-[4-({[6-methyl-2-(4-methylpiperazin-1-yl)quinazolin-4-yl]amino}methyl)phenyl]benzamide] | > 20600 nM | > 20600 nM | > 20600 nM | – | – | –
O=C(Nc1ccc(CNc2nc(N3CCC3)nc3ccc(C(F)(F)F)cc23)cc1)c1ccc(Cl)cc1 [Example 162, N-[4-({[2-azetidin-1-yl-6-(trifluoromethyl)quinazolin-4-yl]amino}methyl)phenyl]-4-chlorobenzamide] | > 9770 nM | 2230 nM | 3580 nM | – | – | –
CNc1nc(NCc2ccc(NC(=O)c3ccc(F)cc3F)cc2)c2cc(C)ccc2n1 [Example 34, 2,4-difluoro-N-[4-({[6-methyl-2-(methylamino)quinazolin-4-yl]amino}methyl)phenyl]benzamide] | > 11500 nM | 3230 nM | 4190 nM | – | – | –
Cc1ccc2nc(N(C)C)nc(NCc3ccc(NC(=O)Nc4ccc(F)cc4)cc3)c2c1 [Example 181, N-[4-({[2-(dimethylamino)-6-methylquinazolin-4-yl]amino}methyl)phenyl]-N′-(4-fluorophenyl)urea] | > 2810 nM | 549 nM | 719 nM | – | – | –
Cc1ccc2c(N[C@@H](C)c3ccc(NC(=O)c4ccc(Cl)nc4)cc3)nc(N(C)C)nc2c1 [Example 269, (S)-6-chloro-N-(4-(1-(2-(dimethylamino)-7-methylquinazolin-4-ylamino)ethyl)phenyl)nicotinamide] | > 11300 nM | 319 nM | 439 nM | – | – | –
COC(=O)c1ccc2nc(N(C)C)nc(NCc3ccc(NC(=O)c4ccc(F)cc4)cc3)c2c1 [Example 70, methyl 2-(dimethylamino)-4-({4-[(4-fluorobenzoyl)amino]benzyl}amino)quinazoline-6-carboxylate] | > 10600 nM | 1480 nM | 2140 nM | – | – | –
